# What was measured:
# Format in all cases: biochemical
# [1] = molecular target: AKT1 (PKB alpha) (Homo sapiens, UniProt P31749); assay: SelectScreen kinase profiling; settings: 5 μM
# Method: (§1) Src IC50 determinations and single-point inhibition measurements were performed using Invitrogen's Z′-LYTE Tyr 02 assay kit according to the manufacturer's protocols. All kinase assays were performed at ATP concentrations near KM,ATP values, except where noted otherwise. Active human Src kinase was obtained from Millipore. For kinome profiling and IC50 determinations against non-Src kinases, compounds were submitted to Invitrogen's SelectScreen Kinase Profiling Service.
# [2] = molecular target: T1, AURKA (Aurora A) (Homo sapiens, UniProt O14965); assay: SelectScreen kinase profiling; settings: AURKA (Aurora A); 5 μM
# T1 sequence (O14965 1-403): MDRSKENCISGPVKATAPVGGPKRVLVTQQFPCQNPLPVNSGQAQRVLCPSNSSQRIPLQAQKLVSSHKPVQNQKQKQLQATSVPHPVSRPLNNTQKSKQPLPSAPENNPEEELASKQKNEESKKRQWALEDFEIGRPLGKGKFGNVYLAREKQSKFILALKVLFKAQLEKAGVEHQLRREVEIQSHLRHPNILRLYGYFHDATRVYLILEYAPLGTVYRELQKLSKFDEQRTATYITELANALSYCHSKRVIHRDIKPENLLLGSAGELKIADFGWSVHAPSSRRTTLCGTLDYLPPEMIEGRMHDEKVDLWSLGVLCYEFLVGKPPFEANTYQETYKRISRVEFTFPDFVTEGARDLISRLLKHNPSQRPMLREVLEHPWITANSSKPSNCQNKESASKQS
# Method: as §1
# [3] = molecular target: AURKC (Aurora C) (Homo sapiens, UniProt Q9UQB9); assay: SelectScreen kinase profiling; settings: 5 μM
# Method: as §1
# [4] = molecular target: BLK (Homo sapiens, UniProt P51451); assay: SelectScreen kinase profiling; settings: 5 μM
# Method: as §1
# [5] = molecular target: BTK (Homo sapiens, UniProt Q06187); assay: SelectScreen kinase profiling; settings: 5 μM
# Method: as §1
# [6] = molecular target: DYRK3 (Homo sapiens, UniProt O43781); assay: SelectScreen kinase profiling; settings: 5 μM
# Method: as §1
# [7] = molecular target: ERBB4 (HER4) (Homo sapiens, UniProt Q15303); assay: SelectScreen kinase profiling; settings: 5 μM
# Method: as §1
# [8] = molecular target: FGR (Homo sapiens, UniProt P09769); assay: SelectScreen kinase profiling; settings: FGR; 5 μM
# Method: as §1
# [9] = molecular target: HCK (Homo sapiens, UniProt P08631); assay: SelectScreen kinase profiling; settings: HCK; 5 μM
# Method: as §1
# [10] = molecular target: IGF1R (Homo sapiens, UniProt P08069); assay: SelectScreen kinase profiling; settings: 5 μM
# Method: as §1
# [11] = molecular target: IKBKB (IKK beta) (Homo sapiens, UniProt O14920); assay: SelectScreen kinase profiling; settings: 5 μM
# Method: as §1
# [12] = molecular target: JAK3 (Homo sapiens, UniProt P52333); assay: SelectScreen kinase profiling; settings: 5 μM
# Method: as §1
# [13] = molecular target: LCK (Homo sapiens, UniProt P06239); assay: SelectScreen kinase profiling; settings: 5 μM
# Method: as §1
# [14] = molecular target: LYN B (Homo sapiens, UniProt P07948); assay: SelectScreen kinase profiling; settings: 5 μM
# Method: as §1
# [15] = molecular target: MAP2K1 (MEK1) (Homo sapiens, UniProt Q02750); assay: SelectScreen kinase profiling; settings: 5 μM
# Method: as §1
# [16] = molecular target: MAP4K4 (HGK) (Homo sapiens, UniProt O95819); assay: SelectScreen kinase profiling; settings: 5 μM
# Method: as §1
# [17] = molecular target: MAPK1 (ERK2) (Homo sapiens, UniProt P28482); assay: SelectScreen kinase profiling; settings: 5 μM
# Method: as §1
# [18] = molecular target: MAPK14 (p38 alpha) (Homo sapiens, UniProt Q16539); assay: SelectScreen kinase profiling; settings: 5 μM
# Method: as §1
# [19] = molecular target: PRKACA (PKA) (Homo sapiens, UniProt P17612); assay: SelectScreen kinase profiling; settings: 5 μM
# Method: as §1
# [20] = molecular target: RPS6KA3 (RSK2) (Homo sapiens, UniProt P51812); assay: SelectScreen kinase profiling; settings: 5 μM
# Method: as §1
# [21] = molecular target: YES1 (Homo sapiens, UniProt P07947); assay: SelectScreen kinase profiling; settings: 5 μM
# Method: as §1
# [22] = molecular target: T2, Abl (Homo sapiens, UniProt P00519); assay: Continuous spectrophotometric kinase activity assay
# T2 construct: human c-Abl (residues 229-512); made in house
# T2 sequence (P00519 229-512): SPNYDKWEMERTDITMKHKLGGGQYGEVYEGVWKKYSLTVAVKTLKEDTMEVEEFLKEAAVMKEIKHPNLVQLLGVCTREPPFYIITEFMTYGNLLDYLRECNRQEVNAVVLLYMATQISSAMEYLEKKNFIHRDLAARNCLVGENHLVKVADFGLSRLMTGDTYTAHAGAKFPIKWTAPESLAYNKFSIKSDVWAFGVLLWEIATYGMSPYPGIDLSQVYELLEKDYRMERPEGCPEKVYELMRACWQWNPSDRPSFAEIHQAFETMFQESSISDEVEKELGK
# [23] = molecular target: T3, Src kinase domain (chicken c-Src residues 251-533) (Gallus gallus, UniProt P00523); assay: as above; settings: Src kinase domain
# T3 construct: chicken c-Src (residues 251-533 and residues 83-533); made in house
# [24] = 5 μM ATP, 100 μM Src optimal peptide
# [25] = 250 μM ATP, 300 μM Src optimal peptide
# MAPK14 (p38 alpha), sequence (Q16539 whole entry): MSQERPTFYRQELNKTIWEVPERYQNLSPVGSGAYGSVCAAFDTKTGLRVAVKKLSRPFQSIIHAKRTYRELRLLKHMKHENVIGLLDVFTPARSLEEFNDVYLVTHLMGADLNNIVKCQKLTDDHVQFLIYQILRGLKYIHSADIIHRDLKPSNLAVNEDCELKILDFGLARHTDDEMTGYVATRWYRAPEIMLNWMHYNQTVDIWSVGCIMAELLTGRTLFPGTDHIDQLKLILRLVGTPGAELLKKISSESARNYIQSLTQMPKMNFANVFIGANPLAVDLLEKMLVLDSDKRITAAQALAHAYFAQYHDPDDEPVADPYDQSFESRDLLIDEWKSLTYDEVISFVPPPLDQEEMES
# MAPK1 (ERK2), sequence (P28482 whole entry): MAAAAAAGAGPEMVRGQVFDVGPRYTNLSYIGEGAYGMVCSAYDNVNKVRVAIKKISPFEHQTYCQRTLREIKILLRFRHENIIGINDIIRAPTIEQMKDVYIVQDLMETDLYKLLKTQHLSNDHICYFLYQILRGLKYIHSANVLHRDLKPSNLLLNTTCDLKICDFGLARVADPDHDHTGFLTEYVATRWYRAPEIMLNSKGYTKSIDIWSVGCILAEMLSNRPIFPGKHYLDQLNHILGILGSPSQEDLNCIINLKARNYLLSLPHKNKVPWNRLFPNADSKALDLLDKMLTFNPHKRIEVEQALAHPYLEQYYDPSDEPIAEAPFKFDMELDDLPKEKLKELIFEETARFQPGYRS
# ERBB4 (HER4), sequence (Q15303 26-1308): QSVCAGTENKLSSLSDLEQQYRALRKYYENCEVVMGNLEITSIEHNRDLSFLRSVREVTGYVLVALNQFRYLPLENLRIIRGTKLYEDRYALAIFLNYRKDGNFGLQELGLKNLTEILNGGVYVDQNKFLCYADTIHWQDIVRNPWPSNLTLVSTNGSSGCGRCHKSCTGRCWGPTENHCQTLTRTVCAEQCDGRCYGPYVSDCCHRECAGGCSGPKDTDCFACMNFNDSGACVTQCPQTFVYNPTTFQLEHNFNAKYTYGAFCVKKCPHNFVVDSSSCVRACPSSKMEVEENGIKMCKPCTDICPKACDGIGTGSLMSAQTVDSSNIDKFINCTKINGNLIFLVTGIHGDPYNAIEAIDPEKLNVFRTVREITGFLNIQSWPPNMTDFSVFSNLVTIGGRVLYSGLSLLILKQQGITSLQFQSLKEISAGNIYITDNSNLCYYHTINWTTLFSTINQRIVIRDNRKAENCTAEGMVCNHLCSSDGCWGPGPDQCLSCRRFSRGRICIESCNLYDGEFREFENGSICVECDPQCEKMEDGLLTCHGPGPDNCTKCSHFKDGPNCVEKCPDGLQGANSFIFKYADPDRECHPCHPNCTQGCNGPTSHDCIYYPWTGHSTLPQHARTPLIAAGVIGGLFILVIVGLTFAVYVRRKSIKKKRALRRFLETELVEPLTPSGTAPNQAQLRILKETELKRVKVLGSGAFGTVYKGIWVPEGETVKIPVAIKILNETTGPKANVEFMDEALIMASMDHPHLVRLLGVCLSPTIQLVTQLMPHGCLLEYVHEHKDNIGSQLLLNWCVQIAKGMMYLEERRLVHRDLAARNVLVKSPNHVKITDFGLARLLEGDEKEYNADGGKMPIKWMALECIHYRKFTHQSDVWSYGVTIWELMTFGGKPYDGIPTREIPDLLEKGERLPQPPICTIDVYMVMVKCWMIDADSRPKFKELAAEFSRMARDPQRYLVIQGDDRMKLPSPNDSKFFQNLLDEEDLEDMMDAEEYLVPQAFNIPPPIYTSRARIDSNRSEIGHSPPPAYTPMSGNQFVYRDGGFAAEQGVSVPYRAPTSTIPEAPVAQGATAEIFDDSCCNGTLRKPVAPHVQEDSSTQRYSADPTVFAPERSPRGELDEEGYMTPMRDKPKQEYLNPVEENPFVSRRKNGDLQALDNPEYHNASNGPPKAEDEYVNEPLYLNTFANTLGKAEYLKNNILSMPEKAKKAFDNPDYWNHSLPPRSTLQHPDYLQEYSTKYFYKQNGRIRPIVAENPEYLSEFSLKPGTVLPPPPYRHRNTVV
# BTK, sequence (Q06187 whole entry): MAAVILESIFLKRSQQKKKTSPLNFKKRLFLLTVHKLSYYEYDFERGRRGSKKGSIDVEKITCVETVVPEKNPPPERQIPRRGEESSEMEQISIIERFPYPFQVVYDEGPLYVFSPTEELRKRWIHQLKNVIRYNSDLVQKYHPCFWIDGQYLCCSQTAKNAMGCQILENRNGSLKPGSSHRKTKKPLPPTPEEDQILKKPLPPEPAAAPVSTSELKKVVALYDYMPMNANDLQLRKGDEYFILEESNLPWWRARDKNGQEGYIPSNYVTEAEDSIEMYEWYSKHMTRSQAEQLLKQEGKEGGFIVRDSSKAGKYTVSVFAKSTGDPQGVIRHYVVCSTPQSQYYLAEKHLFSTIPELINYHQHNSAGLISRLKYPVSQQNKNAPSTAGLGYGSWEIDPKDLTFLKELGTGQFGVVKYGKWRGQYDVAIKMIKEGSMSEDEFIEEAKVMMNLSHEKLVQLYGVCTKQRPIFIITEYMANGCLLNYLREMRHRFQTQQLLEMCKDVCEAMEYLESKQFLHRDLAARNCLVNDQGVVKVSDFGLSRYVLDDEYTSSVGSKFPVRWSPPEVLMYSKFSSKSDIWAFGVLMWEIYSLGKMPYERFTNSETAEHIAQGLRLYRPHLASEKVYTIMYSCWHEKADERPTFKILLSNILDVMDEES
# RPS6KA3 (RSK2), sequence (P51812 whole entry): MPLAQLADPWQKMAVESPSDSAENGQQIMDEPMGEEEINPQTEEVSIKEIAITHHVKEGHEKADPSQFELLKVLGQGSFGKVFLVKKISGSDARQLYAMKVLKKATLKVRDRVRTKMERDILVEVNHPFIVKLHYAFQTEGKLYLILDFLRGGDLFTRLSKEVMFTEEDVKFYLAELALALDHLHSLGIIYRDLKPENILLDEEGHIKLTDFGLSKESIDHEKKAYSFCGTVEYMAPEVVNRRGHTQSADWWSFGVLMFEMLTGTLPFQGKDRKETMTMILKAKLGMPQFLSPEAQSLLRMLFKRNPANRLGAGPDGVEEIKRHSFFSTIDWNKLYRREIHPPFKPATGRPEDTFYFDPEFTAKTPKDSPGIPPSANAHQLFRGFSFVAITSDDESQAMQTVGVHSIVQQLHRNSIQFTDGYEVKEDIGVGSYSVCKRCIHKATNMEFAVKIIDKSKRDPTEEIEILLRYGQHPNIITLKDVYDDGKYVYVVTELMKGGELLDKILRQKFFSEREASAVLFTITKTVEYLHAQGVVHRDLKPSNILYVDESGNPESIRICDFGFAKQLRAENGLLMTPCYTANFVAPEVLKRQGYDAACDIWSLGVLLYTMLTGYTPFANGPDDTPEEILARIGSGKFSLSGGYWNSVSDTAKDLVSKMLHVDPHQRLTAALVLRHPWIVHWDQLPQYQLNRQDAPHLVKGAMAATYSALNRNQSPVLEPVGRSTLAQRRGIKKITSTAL
# YES1, sequence (P07947 whole entry): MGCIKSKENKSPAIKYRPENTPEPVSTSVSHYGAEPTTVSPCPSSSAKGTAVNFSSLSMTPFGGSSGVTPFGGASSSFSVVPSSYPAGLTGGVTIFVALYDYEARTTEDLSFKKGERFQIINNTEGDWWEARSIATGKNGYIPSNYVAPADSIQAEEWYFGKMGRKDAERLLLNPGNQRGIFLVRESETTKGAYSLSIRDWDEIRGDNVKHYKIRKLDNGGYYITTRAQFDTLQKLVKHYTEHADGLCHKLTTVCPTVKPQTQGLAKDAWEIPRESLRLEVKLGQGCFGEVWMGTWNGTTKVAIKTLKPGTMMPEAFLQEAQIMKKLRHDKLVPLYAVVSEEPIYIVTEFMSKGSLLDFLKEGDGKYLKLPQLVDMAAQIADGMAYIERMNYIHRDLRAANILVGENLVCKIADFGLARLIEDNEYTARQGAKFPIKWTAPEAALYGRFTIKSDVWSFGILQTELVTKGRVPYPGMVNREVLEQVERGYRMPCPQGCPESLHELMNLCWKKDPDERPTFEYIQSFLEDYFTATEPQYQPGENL
# FGR, sequence (P09769 whole entry): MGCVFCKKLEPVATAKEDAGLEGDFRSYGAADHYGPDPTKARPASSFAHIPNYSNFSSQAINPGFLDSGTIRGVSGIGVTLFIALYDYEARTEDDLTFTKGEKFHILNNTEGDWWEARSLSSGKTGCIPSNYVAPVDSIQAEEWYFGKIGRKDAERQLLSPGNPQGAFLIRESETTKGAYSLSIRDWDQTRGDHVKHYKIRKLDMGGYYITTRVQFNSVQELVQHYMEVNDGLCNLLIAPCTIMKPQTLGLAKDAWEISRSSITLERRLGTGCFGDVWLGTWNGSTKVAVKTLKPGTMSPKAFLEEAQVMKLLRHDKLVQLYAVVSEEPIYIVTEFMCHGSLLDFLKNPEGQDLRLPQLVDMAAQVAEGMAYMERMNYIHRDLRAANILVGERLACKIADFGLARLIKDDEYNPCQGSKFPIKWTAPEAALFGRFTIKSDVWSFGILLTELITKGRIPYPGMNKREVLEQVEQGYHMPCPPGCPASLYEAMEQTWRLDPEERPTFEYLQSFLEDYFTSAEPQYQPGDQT
# LYN B, sequence (P07948 1-491 isoform P07948-2): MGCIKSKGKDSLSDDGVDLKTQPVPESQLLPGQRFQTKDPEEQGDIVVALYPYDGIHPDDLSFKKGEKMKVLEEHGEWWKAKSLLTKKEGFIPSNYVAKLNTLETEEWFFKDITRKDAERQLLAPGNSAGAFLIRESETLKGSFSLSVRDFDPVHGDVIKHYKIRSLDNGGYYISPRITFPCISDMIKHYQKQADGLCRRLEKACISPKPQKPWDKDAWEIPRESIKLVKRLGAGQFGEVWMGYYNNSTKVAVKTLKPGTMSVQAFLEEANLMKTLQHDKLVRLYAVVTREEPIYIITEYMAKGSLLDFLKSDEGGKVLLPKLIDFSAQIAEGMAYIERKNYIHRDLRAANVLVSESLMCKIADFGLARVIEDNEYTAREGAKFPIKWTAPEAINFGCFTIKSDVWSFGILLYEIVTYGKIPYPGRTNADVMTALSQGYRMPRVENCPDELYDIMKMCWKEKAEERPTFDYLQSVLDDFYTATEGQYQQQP
smiles,measurement,setting,value
NC(=O)[C@@H]1CCCNC(=O)[C@H](Cc2ccc([N+](=O)[O-])cc2)NC(=O)[C@H](Cc2ccco2)NC(=O)[C@H](CC2CC2)NC(=O)/C=C/C(=O)N1 [trans-A10-B1-C5-D6],% inhibition,[1],−7%
same,% inhibition,[2],10%
same,% inhibition,[3],2%
same,% inhibition,[4],10%
same,% inhibition,[5],4%
same,% inhibition,[6],4%
same,% inhibition,[7],4%
same,% inhibition,[8],13%
same,% inhibition,[9],9%
same,% inhibition,[10],9%
same,% inhibition,[11],−1%
same,% inhibition,[12],−7%
same,% inhibition,[13],17%
same,% inhibition,[14],7%
same,% inhibition,[15],−6%
same,% inhibition,[16],−1%
same,% inhibition,[17],−3%
same,% inhibition,[18],32%
same,% inhibition,[19],−1%
same,% inhibition,[20],−4%
same,% inhibition,[21],19%
same,IC50,[22]; [24],> 100 µM
same,IC50,"[22]; 5 μM ATP, 300 μM Src optimal peptide",> 100 µM
same,IC50,[22]; [25],> 100 µM
same,IC50,[23]; [24],11 µM
same,IC50,[23]; [25],21 µM

# From patent publication US8975232B2, “Macrocyclic kinase inhibitors and uses thereof” (President and Fellows of Harvard College, priority 2010, dated 2015)
